Reference: patent US12686668B2, “Leukotriene synthesis inhibitors” (Naegis Pharmaceuticals Inc., priority 2019, dated 2026)

Key:
[1] = target: T1, recombinant human leukotriene A4 hydrolase enzyme (Homo sapiens, UniProt P09960); experiment: Amino-peptidase assay, alanine-4-nitroanalide; assay type: biochemical; conditions: negative values = augmented peptidase activity, read-out: % Inhibition aminopeptidase-Alanine-4-nitroanalide activity of LTA4H (3 μM)
T1 construct: purchased Cayman Chemical 10007817
T1 sequence (P09960 1-611): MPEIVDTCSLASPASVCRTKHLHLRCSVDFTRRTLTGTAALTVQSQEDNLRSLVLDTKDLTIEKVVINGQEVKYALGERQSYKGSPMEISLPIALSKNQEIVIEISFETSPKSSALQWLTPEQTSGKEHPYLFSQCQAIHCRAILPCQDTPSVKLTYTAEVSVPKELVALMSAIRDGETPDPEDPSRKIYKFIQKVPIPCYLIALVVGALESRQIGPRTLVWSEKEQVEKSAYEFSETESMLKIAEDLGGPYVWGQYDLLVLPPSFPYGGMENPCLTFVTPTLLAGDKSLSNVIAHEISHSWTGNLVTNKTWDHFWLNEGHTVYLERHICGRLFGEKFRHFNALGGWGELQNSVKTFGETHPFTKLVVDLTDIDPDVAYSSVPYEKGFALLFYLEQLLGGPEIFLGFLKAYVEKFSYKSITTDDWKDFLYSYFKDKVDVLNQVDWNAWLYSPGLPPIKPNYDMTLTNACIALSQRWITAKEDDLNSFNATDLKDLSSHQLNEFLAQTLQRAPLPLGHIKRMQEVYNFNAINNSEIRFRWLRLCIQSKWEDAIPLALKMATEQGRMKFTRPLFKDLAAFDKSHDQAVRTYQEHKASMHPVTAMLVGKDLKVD
Outline: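 Compounds pre-incubated in the dark with recombinant human LTA4H (0.5 μg) in 50 mM Tris-HCl, 100 mM KCl; reaction started with alanine-4-nitroanilide (6 mM solution). Aminopeptidase rate followed as A405 from 4-nitroaniline, referenced to a standard; inhibition calculated versus controls, with negative values indicating augmented activity.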

[2] = Rat ocular distribution model, retina after topical drop; assay type: in vivo; conditions: Lewis rats, 10 μL topical drop
Method: Eye drops were prepared by adding compounds at a theoretical concentration of 10 mg/mL to a 2 mL microcentrifuge tube before adding a stir bar and the selected formulation that consisted of (w/v) hydroxypropyl β-cyclodextrin (Trappsol) (20%), hydroxyl propyl methylcellulose (0.5%) and EDTA (1.6 mM) in phosphate buffered saline. Tubes containing compound in eye drop formulation were heated to 60-65° C. and stirred at least 4 hours to overnight. The tubes were removed from the heat bath and centrifuged at 10,000 ref for 5 minutes to clear the solution of any residual drug not in solution. The supernatant was removed from the tubes and one 10 μL sample was removed for HPLC analysis of solubilized by HPLC using an ACE C18 column (4.5 mm×150 mm, 5 m), eluted with acetonitrile/methanol/water mixture with H3PO4, pH 3.5 (50:30:20) with a flow rate of 2.5 mL/min. The solubilized concentration of each compound was calculated by interpolation from a standard curve based on reference standards solubilized in methanol when the assay was validated.
Compounds were applied as a single 10 μL drop to rats and the aqueous humor, and the posterior segment of the eye (vitreous body and retina) were collected from each eye at the time point assigned after the eye was irrigated to remove any residual formulation present. Tissues were collected in pre-weighed collection tubes and the tissue weight was determined for each sample. An internal standard (IS) mixture containing a reference compound at a ratio of 1 μL to 4 mg tissue was added to samples, mixed and then diluted×4.25 in acetonitrile:methanol (9:1). Aqueous humour samples were vortex mixed for 10 s. The vitreous body & retina were vortex mixed 2 times each for 10 s, and further mixed for 6 min on a tabletop shaker at 750 rpm followed by final vortex mixing (10 s). All samples were centrifuged to pellet any particulate matter and the supernatant was transferred to LC vials. A 10 μL sample was then applied to the HPLC during LC/MS/MS analysis. A calibration curve for compounds (0.588-176.471 ng/mL) was prepared in rat plasma to estimate concentrations of compounds in each of the matrices analyzed using the area under curve (AUC) normalized to internal standard AUC for determining response. The assumption was made that 1 mg tissue is equivalent to 1 μL plasma. Concentrations measured in each tissue were then normalized to the amount of drug applied to account for differences in solubilized drug in each formulation. The average concentration and the standard deviation was determined based on “n”=number of eyes assessed, rather than the number of animals. […]

SMILES | inhibition at 3 µM [1] | Concentration of compound in retina 0.5 hr after administration per mg compound applied (Avg ± SD) n = 2 [2]
CCC(O)(CCc1ccc(Oc2nc3c(SC)cccc3s2)c(OC)c1)C(F)(F)F (stereo not drawn) [Compound 104, 1-{3-methoxy-4-[(4-methylsulfanyl-1,3-benzothiazol-2-yl)oxy]phenyl}-3-(trifluoromethyl)pentan-3-ol] | -50 to 100% | 3340 ± 1061 ng/mL per mg compound applied
CC(O)(CCc1ccc(OCc2ccc3ccccc3n2)cc1)C(F)(F)F (stereo not drawn) [Compound 183, 1,1,1-trifluoro-2-methyl-4-[4-(quinolin-2-ylmethoxy)phenyl]butan-2-ol] | > 75% | –
